BindingDB's records for doi:10.1021/acsmedchemlett.6b00145 (Amgen, 2016)
pEC50: −log10 of the molar value.

How the values were obtained:
Hexokinase-4 [1] = target: T1, Hexokinase-4 (Homo sapiens, UniProt P35557); assay: Activation of human recombinant glucokinase using 5 mM glucose as substrate in presence of NAD+ by glucose 6-phosphate dehydrogenase coupled assay
T1 sequence (P35557 whole entry): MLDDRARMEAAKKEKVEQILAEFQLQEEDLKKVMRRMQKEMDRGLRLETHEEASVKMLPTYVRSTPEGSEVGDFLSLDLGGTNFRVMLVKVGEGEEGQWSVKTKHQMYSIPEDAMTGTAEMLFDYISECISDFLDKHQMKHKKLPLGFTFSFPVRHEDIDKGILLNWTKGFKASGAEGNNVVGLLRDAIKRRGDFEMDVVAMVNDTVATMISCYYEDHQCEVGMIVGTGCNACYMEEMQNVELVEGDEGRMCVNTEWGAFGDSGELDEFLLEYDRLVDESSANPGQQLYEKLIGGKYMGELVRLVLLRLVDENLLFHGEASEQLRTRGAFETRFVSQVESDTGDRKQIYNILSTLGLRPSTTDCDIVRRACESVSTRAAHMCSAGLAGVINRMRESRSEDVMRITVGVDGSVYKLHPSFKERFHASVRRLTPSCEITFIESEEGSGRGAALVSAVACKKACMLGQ

Hexokinase-4 [2] = target: T1, Hexokinase-4; assay: Activation of human recombinant glucokinase using 5 mM glucose as substrate in presence of NAD+ and 4% HSA by glucose 6-phosphate dehydrogenase coupled assay

Row | SMILES | pEC50 (Hexokinase-4 [1]) | pEC50 (Hexokinase-4 [2])
1 | CNC(=O)Nc1cc(Oc2cncc(OC)c2)c([C@@H]2COCC[C@@H]2O)cn1 | 6.03 | 6.04
2 | CNC(=O)Nc1cc(Oc2cncc(C)c2)c([C@H]2C[C@@H]2CO)cn1 | 6.89 | 6.77
3 | CNC(=O)Nc1cc(Oc2cncc(C)c2)c([C@H]2C[C@@H]2C(C)(C)O)cn1 | 7.08 | 6.89
4 | CNC(=O)Nc1cc(Oc2cncc(C)c2)c([C@@H]2CC[C@@H](O)C2)cn1 | 7.01 | 6.72
